# Source: ChEMBL document CHEMBL1144431, “6-Hydroxy-1,2,3,4-tetrahydro-isoquinoline-3-carboxylic acid mimics active conformation of tyrosine in opioid peptides” (Bioorg Med Chem Lett, 2005)
# Residues, ends and D or L forms follow the SMILES beside them.
# Tests used:
# [1] = molecular target: Mu-type opioid receptor (Rattus norvegicus, UniProt P33535); assay: Inhibition of [3H]naloxone binding to rat brain homogenate Opioid receptor mu
# [2] = molecular target: Delta-type opioid receptor (Rattus norvegicus, UniProt P33533); assay: Inhibition of [3H]naloxone binding to rat brain homogenate Opioid receptor delta
# Sequence of Delta-type opioid receptor (P33533 whole entry): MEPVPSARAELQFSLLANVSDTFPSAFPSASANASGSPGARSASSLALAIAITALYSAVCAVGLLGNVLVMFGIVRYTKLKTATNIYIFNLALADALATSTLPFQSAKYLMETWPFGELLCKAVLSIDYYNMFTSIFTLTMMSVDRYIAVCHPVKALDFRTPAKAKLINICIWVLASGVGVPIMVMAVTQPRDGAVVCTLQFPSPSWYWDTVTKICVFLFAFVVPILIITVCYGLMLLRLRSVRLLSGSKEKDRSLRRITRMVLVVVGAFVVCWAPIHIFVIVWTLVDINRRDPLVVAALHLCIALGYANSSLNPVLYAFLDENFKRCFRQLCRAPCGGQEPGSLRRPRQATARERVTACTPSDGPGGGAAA
# Sequence of Mu-type opioid receptor (P33535 whole entry): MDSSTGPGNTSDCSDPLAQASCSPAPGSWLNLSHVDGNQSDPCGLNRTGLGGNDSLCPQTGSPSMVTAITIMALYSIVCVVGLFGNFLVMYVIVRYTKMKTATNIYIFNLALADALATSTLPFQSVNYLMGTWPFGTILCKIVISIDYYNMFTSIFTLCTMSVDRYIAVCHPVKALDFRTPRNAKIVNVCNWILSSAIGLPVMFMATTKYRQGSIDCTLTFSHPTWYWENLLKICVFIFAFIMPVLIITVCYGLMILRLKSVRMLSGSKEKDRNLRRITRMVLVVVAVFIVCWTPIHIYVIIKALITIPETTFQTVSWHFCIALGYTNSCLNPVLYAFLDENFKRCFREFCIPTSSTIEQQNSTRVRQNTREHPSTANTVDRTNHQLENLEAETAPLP
SMILES,Ki [1] [nM],Ki [2] [nM]
C[C@@H](NC(=O)[C@@H]1Cc2ccc(O)cc2CN1)C(=O)N[C@@H](Cc1ccccc1)C(=O)NCC(=O)N[C@@H](Cc1ccc(O)cc1)C(=O)N1CCC[C@H]1C(=O)N[C@@H](CO)C(N)=O,1620,> 10000
C[C@@H](NC(=O)[C@@H]1Cc2cc(O)ccc2CN1)C(=O)N[C@@H](Cc1ccccc1)C(=O)N[C@@H](Cc1ccccc1)C(N)=O,57.8,> 10000
C[C@@H](NC(=O)[C@@H](N)Cc1ccc(O)cc1)C(=O)N[C@@H](Cc1ccccc1)C(=O)NCC(=O)N[C@@H](Cc1ccc(O)cc1)C(=O)N1CCC[C@H]1C(=O)N[C@@H](CO)C(N)=O [DERMORPHIN],2.4,–
C[C@@H](NC(=O)[C@@H](N)Cc1ccc(O)cc1)C(=O)N[C@@H](Cc1ccccc1)C(=O)N[C@@H](Cc1ccccc1)C(N)=O (HELM PEPTIDE1{Y.[dA].F.F.[am]}$$$$V2.0),–,1820
NC(=O)[C@H](Cc1ccccc1)NC(=O)[C@H](Cc1ccccc1)NC(=O)[C@@H]1CCCN1C(=O)[C@@H]1Cc2cc(O)ccc2CN1,216,> 10000
C[C@@H](NC(=O)[C@@H]1Cc2cc(O)ccc2CN1)C(=O)N[C@@H](Cc1ccccc1)C(=O)NCC(=O)N[C@@H](Cc1ccc(O)cc1)C(=O)N1CCC[C@H]1C(=O)N[C@@H](CO)C(N)=O,253,> 10000
CC(C)[C@H](NC(=O)[C@H](CC(=O)O)NC(=O)[C@H](Cc1ccccc1)NC(=O)[C@@H](C)NC(=O)[C@@H]1Cc2ccc(O)cc2CN1)C(=O)N[C@H](C(=O)NCC(N)=O)C(C)C,> 10000,304
CC(C)[C@H](NC(=O)[C@H](CC(=O)O)NC(=O)[C@H](Cc1ccccc1)NC(=O)[C@@H](C)NC(=O)[C@@H]1Cc2cc(O)ccc2CN1)C(=O)N[C@H](C(=O)NCC(N)=O)C(C)C,> 10000,10.4
CC(C)[C@H](NC(=O)[C@H](CC(=O)O)NC(=O)[C@H](Cc1ccccc1)NC(=O)[C@@H](C)NC(=O)[C@@H](N)Cc1ccc(O)cc1)C(=O)N[C@H](C(=O)NCC(N)=O)C(C)C [DELTORPHIN C],1700,0.73
